Assay results as given in publication PMC10685318, “Trans-cyclosulfamidate mannose-configured cyclitol allows isoform-dependent inhibition of GH47 α-D-mannosidases through a bump–hole strategy” (Chemical Science, 2023).
Where two headings read alike, the source gives them in different places.

Biological target: T1, MAN2C1 (Homo sapiens, UniProt Q9NTJ4)
T1 construct: expressed in transfected cells
T1 sequence (Q9NTJ4 1-1040): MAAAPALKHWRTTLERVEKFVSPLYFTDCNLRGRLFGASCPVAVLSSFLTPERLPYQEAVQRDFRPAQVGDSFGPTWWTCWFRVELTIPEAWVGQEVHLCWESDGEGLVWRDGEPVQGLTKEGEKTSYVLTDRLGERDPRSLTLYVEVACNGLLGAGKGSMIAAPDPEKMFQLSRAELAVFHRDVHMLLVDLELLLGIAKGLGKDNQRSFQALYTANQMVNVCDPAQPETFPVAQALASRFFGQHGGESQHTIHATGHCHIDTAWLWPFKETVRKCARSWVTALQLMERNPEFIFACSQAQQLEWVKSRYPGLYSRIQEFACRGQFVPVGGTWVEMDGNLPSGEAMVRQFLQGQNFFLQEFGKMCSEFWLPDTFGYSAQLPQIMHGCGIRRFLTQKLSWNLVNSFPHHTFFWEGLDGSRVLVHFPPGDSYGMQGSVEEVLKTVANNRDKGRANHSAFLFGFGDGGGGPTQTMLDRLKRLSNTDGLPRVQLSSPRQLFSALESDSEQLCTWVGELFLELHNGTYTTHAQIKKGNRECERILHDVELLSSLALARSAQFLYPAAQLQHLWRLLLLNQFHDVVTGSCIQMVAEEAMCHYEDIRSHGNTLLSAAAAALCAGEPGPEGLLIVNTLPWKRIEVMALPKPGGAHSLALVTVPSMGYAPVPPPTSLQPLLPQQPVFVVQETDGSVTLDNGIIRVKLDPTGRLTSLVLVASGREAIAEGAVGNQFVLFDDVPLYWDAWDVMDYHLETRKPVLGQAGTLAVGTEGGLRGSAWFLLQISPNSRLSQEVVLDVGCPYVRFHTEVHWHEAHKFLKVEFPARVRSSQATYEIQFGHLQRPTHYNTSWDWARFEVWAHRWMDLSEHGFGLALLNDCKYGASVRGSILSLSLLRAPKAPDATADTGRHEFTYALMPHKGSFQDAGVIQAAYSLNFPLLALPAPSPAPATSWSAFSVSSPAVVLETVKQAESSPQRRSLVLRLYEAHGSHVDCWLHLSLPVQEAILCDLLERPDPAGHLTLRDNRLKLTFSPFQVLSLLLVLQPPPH
Assay: 4-MU-α-man activity assay in overexpressed cell lysates
Type: biochemical

Compound: O=S1(=O)N[C@@H]2[C@@H](O)[C@@H](O)[C@H](O)[C@@H](CO)[C@H]2O1 [compound 6, 1,6-trans-manno-cyclosulfamidate]
- IC50 (Co2+ (cobalt as the metal ion), read-out: IC50 (apparent)): 3.5 ± 1.2 µM
- IC50 (Zn2+ (buffer supplemented with 1 mM ZnCl2 instead of CoCl2)): no IC50 value could be determined
- IC50 (Zn2+ (buffer supplemented with 1 mM ZnCl2 instead of CoCl2), read-out: IC50): > 1000 µM
